Results from patent US8871716B2, “Use of antimicrobial peptides in regeneration of skin cells” (Korea Advanced Institute of Science and Technology, priority 2010, dated 2014).
Where no end group is shown, it is not given here.

What was measured:
human skin cell HaCat = assay: boyden chamber assay of skin cell migration; format: cell-based; design: migration of skin cells relative to a control: dose or concentration left out as unconfirmed; settings: for skin cell migratory activity relative to the control: 1 μM peptide (most effective concentration), HaCat, control: medium without peptide; for migration of skin cells relative to a control: boyden chamber assay
Experimental: To examine whether each of the peptides synthesized in Example 1 could promote the migration of skin cells, a boyden chamber assay was used.
In the chamber of two compartments separated by a microporous membrane, 50 μL of a suspension containing the human skin cell HaCat at a concentration of 5×10^3 CFU/ml was placed in the upper compartment and were allowed to migrate through the pores of the membrane into the lower compartment in which a 0.25˜16 μM dilution of each of the peptides in a skin cell culture medium was present. The cells which migrated into the lower compartment were counted to determine the ability of each of the peptides to promote skin cell […] (FIG. 1). For a control, a skin cell culture medium containing none of the peptides was used.

HaCat = assay: scratched wound-healing assay of skin cell regeneration; format: cell-based, human; settings: 1 μM peptide, 12 hrs incubation
Experimental: To examine whether each of the peptides synthesized in Example 1 can enhance the regeneration of skin cells, a scratched wound-healing assay was used. 900 μL of a suspension containing HaCat at a concentration of 1×10^5 CFU/ml was placed in each well of 12-well plates and incubated for 3 days. […] A clear zone was set at the center of each well of the plate using a yellow tip. After incubation for 12 hrs, a reduced area of the clear zone was measured to determine the effect of each peptide on the regeneration of skin cells (FIG. 2). For a control, no peptides were used.

full-thickness wound = full-thickness wound healing on the back of mice; format: in vivo; settings: 50 μL of 1 μM peptide applied to wound once a day for two days
Experimental: Mice were shaved on the back using an electric razor, followed by forming a full-thickness wound 1.1 cm in diameter using surgical scissors. Application of 50 μL of 1 μM peptide 17 to the wound was continued for 2 days, after which the size of the wound was measured. The wound healing activity of peptide 17 was expressed by the reduced area of the wound (FIG. 3). As the control, the mice were treated with distilled water instead of peptide 17.

| Sequence | skin cell migratory activity relative to the control (human skin cell HaCat) | migration of skin cells relative to a control (human skin cell HaCat) | rate of regeneration of skin cells (reduced area of clear zone) versus no peptide (HaCat) [fold] | rate of reduction of wound area versus distilled water control (full-thickness wound) [fold] |
| --- | --- | --- | --- | --- |
| APKAMKLLKKLLKLQKKGI (APKAMKLLKKLLKLQKKGI-NH2) [Peptide 17] | about 4.5 times that of the control | 4.5 times higher than a control | 2.5 | 7 |
| APKAMRLLRRLLRLQKKGI (APKAMRLLRRLLRLQKKGI-NH2) [Peptide 26] | about 4.5 times that of the control | 4.5 times higher than a control | 2.5 | – |
